From ChEMBL document CHEMBL1155145, “Calcineurin inhibition or mutation enhances cell wall inhibitors against Aspergillus fumigatus” (2007)
The source made the active and inactive calls. The rule behind the calls is not given here.

Assays:
Aspergillus fumigatus [1] = assay: Antifungal activity against Aspergillus fumigatus assessed as induction of balloon-like of hyphal apical tips at 32 ug/ml after 48 hrs; format: functional, organism-based
Aspergillus fumigatus [2] = assay: Decrease in 1,3-beta-D-glucan level in Aspergillus fumigatus assessed as relative fluorescence units at 1 ug/ml by aniline blue fluorescence assay; format: functional
Aspergillus fumigatus [3] = assay: Antifungal activity against Aspergillus fumigatus assessed as inhibition of hyphal growth at 1 ug/ml by radial growth assay; format: functional, organism-based
Aspergillus fumigatus [4] = assay: Decrease in 1,3-beta-D-glucan level in Aspergillus fumigatus expressing delta-cnaA mutant assessed as relative fluorescence units at 1 ug/ml by aniline blue fluorescence assay; format: functional
Aspergillus fumigatus [5] = assay: Antifungal activity against Aspergillus fumigatus expressing delta-cnaA mutant assessed as dead microbial cells at 1 ug/ml by trimethine oxonol staining; format: functional
Aspergillus fumigatus [6] = assay: Decrease in 1,3-beta-D-glucan level in Aspergillus fumigatus assessed as relative fluorescence units at 20 ng/ml by aniline blue fluorescence assay; format: functional
Aspergillus fumigatus [7] = assay: Antifungal activity against Aspergillus fumigatus assessed as inhibition of hyphal growth at 20 ng/ml by radial growth assay; format: functional, organism-based
Aspergillus fumigatus [8] = assay: Effect on cellular morphology of Aspergillus fumigatus expressing delta-cnaA mutant assessed as induction hyphal tips blunting at 20 ng/ml; format: functional, organism-based
Aspergillus fumigatus [9] = assay: Antifungal activity against Aspergillus fumigatus assessed as induction of stunted hyphal tips at 20 ng/ml after 6 hrs; format: functional, organism-based
Aspergillus fumigatus [10] = assay: Effect on cellular morphology of Aspergillus fumigatus assessed as induction hyphal tips blunting at 20 ng/ml; format: functional, organism-based
Aspergillus fumigatus [11] = assay: Antifungal activity against Aspergillus fumigatus ungerminated conidia assessed as delay in germ-tube extension at 20 ng/ml after 60 hrs of fungal growth; format: functional, organism-based

Q: For `C[C@@H]([C@H](N)C(=O)N[C@H](C(=O)O)[C@H]1O[C@@H](n2ccc(=O)[nH]c2=O)[C@H](O)[C@@H]1O)[C@H](O)c1ccc(O)cn1`, which Activity (Aspergillus fumigatus [1]) is on record?
A: Active

Q: What does the source list for `CC[C@H](C)C[C@H](C)CCCCCCCCC(=O)N[C@H]1C[C@@H](O)[C@@H](NCCN)NC(=O)[C@@H]2[C@@H](O)CCN2C(=O)[C@H]([C@H](O)CCN)NC(=O)[C@H]([C@H](O)[C@@H](O)c2ccc(O)cc2)NC(=O)[C@@H]2C[C@@H](O)CN2C(=O)[C@H]([C@@H](C)O)NC1=O` [CASPOFUNGIN]?
A: RFU (Aspergillus fumigatus [2]): 6.187; Activity (Aspergillus fumigatus [3]): Active; RFU (Aspergillus fumigatus [4]): 1.086; Activity (Aspergillus fumigatus [5]): 15%

Q: For `C=CC[C@@H]1/C=C(\C)C[C@H](C)C[C@H](OC)[C@H]2O[C@@](O)(C(=O)C(=O)N3CCCC[C@H]3C(=O)O[C@H](/C(C)=C/[C@@H]3CC[C@@H](O)[C@H](OC)C3)[C@H](C)[C@@H](O)CC1=O)[C@H](C)C[C@@H]2OC` [TACROLIMUS ANHYDROUS], which RFU (Aspergillus fumigatus [6]) is on record?
A: 2.909

Q: And the Activity (Aspergillus fumigatus [7])?
A: Active

Q: What about the Activity (Aspergillus fumigatus [8]) of the same molecule?
A: Active

Q: What about the Activity (Aspergillus fumigatus [9]) of the same molecule?
A: Dose-dependent effect

Q: What about the Activity (Aspergillus fumigatus [10]) of the same molecule?
A: Active

Q: And the Activity (Aspergillus fumigatus [11])?
A: Dose-dependent effect
